# Values quoted from earlier work, collected in article PMC10126514, “The interaction of peptide inhibitors and Aβ protein: Binding mode analysis, inhibition of the formation of Aβ aggregates, and then exert neuroprotective effects” (Frontiers in Aging Neuroscience, 2023).
# Details: ref Wang et al., 2019, Behl et al., 2020, Tolar et al.; cited from earlier work
smiles,measurement,value
CCN(C)C(=O)Oc1cccc([C@H](C)N(C)C)c1 [rivastigmine],Potential side effects,"Diarrhea, vomiting, nausea, and abdominal cramps"
